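These data come from cells grown in 96-well plates and exposed to compound for 48 hours at five concentrations. At the GI50, growth is halved. TGI marks complete inhibition of growth.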

Holding throughout (experiment): inhibition of tumour cell growth, NCI panel, 48 h
For assay [1], the system named is OVCAR-8 ovarian.
Assay [2] relates to UACC-62 melanoma.
The test system of assay [3] is MDA-MB-231 breast.
Assay [4] concerns SN12C renal.
The test system of assay [5] is CCRF-CEM leukemia.
Assay [6] deals with NCI-H226 lung.
Assay [7] has as its system SF-539 CNS.
The test system of assay [8] is NCI-H23 lung.
Assay [9] relates to IGROV1 ovarian.
Assay [10] concerns SW-620 colon.

Turning to `CCCCOc1ccc(/C=N/Nc2cc(C)nc3ccc(Cl)cc23)cc1`, the GI50 in assay [1] was 1.78 µM; in assay [2] it was 1.61 µM; in assay [3], 1.74 µM; in [4], 1.63 µM; in [5], 1.86 µM; in assay [6], 1.63 µM. For the same compound, the GI50 in assay [7] was 1.84 µM; in assay [8], 1.77 µM; in assay [9], 1.93 µM. For the same compound, the TGI worked out at 3.46 µM in [1]; 3.02 µM in assay [2]; 3.25 µM in assay [3]; 3.08 µM in assay [4]; 4.48 µM in assay [5]; 3.41 µM in assay [6]. Also, the TGI in [7] was found to be 3.28 µM; in assay [8] it was 3.42 µM; in assay [9], 3.63 µM.
Consider `O=S(=O)(O)ONC1=NCCN1`, for which the GI50 is > 100 µM in [1]; > 100 µM in assay [2]; > 100 µM in assay [3]; > 100 µM in assay [4]; 43.4 µM in [5]; 72.5 µM in assay [10]. In addition, the GI50 in assay [6] was > 100 µM; in assay [7], > 100 µM; in assay [8], 94.2 µM; in assay [9] it was > 100 µM. In addition, the TGI in assay [1], in [2], in assay [3], in assay [4], in assay [5] and in assay [10] was > 100 µM in each case. The TGI in assay [6], in assay [7], in [8] and in assay [9] was > 100 µM throughout.
On to `Cn1ncc(-c2ccc3c(=O)[nH]nc(CN)c3c2)c1-c1c(F)cc2ccccc2c1C#N`, for which the GI50 was 4.34 µM in [1]; 10.2 µM in assay [2]; 8.53 µM in [3]; 7.53 µM in assay [4]; 10.7 µM in [5]; 3.05 µM in assay [10]. The results for the GI50 in assay [6], in assay [7] and in assay [9] were 7.69 µM, 7.6 µM and 4.63 µM, respectively. Also, the TGI in [1] is 17.5 µM; in [2], 23.6 µM; in assay [3], 23.4 µM; in assay [4], 20.8 µM; in assay [5], 57.3 µM; in assay [10], 15.1 µM. Also, the TGI was found to be 24.3 µM in assay [6], 20.8 µM in assay [7] and 19.7 µM in assay [9].
For `Oc1c(CN2CCOCC2)cc(COCc2ccccc2)c2cccnc12`, the GI50 was 2.8 µM in assay [1]; 2.24 µM in [2]; 6.48 µM in assay [3]; 5.29 µM in [4]; 0.494 µM in assay [5]; 3.61 µM in assay [10]. Further, the GI50 in [6] was 4.65 µM; in assay [7], 2.24 µM; in assay [8] it was 3.25 µM; in assay [9], 3.85 µM. In addition, the TGI was > 100 µM in assay [1]; 8.91 µM in assay [2]; > 100 µM in assay [3]; > 100 µM in assay [4]; > 100 µM in assay [5]; > 100 µM in assay [10]. Besides, the TGI is 36.8 µM in assay [6], 11.5 µM in assay [7], > 100 µM in [8] and > 100 µM in assay [9].
Turning to `Oc1ccc(Cl)cc1-c1cc(-c2ccc(F)cc2)n[nH]1`, the GI50 in assay [1] was 1.85 µM; in [2], 2.42 µM; in assay [3], 1.19 µM; in assay [4], 2.61 µM; in assay [5] it was 0.452 µM; in assay [10] it was 2.64 µM. The GI50 in [6] was 2.57 µM; in assay [7], 2.1 µM; in assay [8], 1.61 µM; in assay [9] it was 1.23 µM. The TGI in assay [1] amounted to 5.39 µM; in assay [2], 9.5 µM; in assay [3], 4.35 µM; in assay [4], 13.3 µM; in assay [5] it was 4.12 µM; in assay [10] it was 10.5 µM. Also, the TGI is 12.9 µM in assay [6], 4.51 µM in [7], 4.09 µM in assay [8] and 8.44 µM in [9].
`COc1cccc(C2=C(c3cn(C)c4cccc(OC)c34)C(=O)NC2=O)c1`: the GI50 in [1] is 18.5 µM; in assay [2], 7.17 µM; in [3], 17.9 µM; in [4], 15.1 µM; in assay [5] it was 10.4 µM; in [10] it was 6.89 µM. Besides, the GI50 was > 25 µM in assay [6], 6.58 µM in assay [7], 19.6 µM in assay [8] and 7.49 µM in [9]. In addition, the TGI in assay [1], in assay [2], in assay [3], in assay [4], in assay [5] and in assay [10] was > 25 µM in each case. The TGI was > 25 µM in [6], 18.6 µM in [7], > 25 µM in [8] and > 25 µM in assay [9].
Take `C1CC[N-]CC1.CC(=N\O)/C(C)=N/O.CC(=N\O)/C(C)=N/O.[CH2-]CCN1CCOCC1.[Co+2]`: the GI50 in assay [1], in [2], in assay [3], in assay [4], in assay [10] and in assay [6] was > 100 µM in each case. Besides, the GI50 in assay [7] and in assay [9] was > 100 µM throughout. Moreover, the TGI in assay [1], in assay [2], in assay [3], in assay [4], in assay [10] and in [6] was > 100 µM each time. In addition, the TGI in assay [7] and in [9] was > 100 µM throughout.

These data come from PubChem BioAssay (NCI).
